Here are results for two compounds from US20060019997A1, “Triazole compounds and their use as metabotropic glutamate receptor antagonists” (AstraZeneca AB, priority 2004, published 2006).

In the test the target is T1, human mGluR5d (Homo sapiens, UniProt P41594).
T1 construct: expressed in transfected cells
Nature of the test: FLIPR analysis of [Ca2+]i mobilization (Group I receptor antagonist activity). The note with it: cells expressing human mGluR5d; antagonist block of agonist challenge. The test is classed as cell-based. An excerpt:
The pharmacological properties of the compounds of the invention can be analyzed using standard assays for functional activity. Examples of glutamate receptor assays are well known in the art as described in for example Aramori et al., Neuron 8:757 (1992), Tanabe et al., Neuron 8:169 (1992), Miller et al., J. Neuroscience 15: 6103 (1995), Balazs, et al., J. Neurochemistry 69:151 (1997). The methodology described in these publications is incorporated herein by reference. Conveniently, the compounds of the invention can be studied by means of an assay that measures the mobilization of intracellular calcium, [Ca^2+]i in cells expressing mGluR5. […]
FLIPR experiments were done using a laser setting of 0.800 W and a 0.4 second CCD camera shutter speed. […] After each addition of the compound, the fluorescence signal was sampled 50 times at 1 second intervals followed by 3 samples at 5 second intervals. Responses were measured as the peak height of the response within the sample period. […]
FLIPR experiments were done using a laser setting of 0.800 W and a 0.4 second CCD camera shutter speed with excitation and emission wavelengths of 488 nm and 562 nm, respectively. […] After each addition the fluorescence signal was sampled 50 times at 1 second intervals followed by 3 samples at 5 second intervals. Responses were measured as the peak height of the response within the sample period. […]

T1 sequence (P41594 21-942 isoform P41594-3 limits assumed): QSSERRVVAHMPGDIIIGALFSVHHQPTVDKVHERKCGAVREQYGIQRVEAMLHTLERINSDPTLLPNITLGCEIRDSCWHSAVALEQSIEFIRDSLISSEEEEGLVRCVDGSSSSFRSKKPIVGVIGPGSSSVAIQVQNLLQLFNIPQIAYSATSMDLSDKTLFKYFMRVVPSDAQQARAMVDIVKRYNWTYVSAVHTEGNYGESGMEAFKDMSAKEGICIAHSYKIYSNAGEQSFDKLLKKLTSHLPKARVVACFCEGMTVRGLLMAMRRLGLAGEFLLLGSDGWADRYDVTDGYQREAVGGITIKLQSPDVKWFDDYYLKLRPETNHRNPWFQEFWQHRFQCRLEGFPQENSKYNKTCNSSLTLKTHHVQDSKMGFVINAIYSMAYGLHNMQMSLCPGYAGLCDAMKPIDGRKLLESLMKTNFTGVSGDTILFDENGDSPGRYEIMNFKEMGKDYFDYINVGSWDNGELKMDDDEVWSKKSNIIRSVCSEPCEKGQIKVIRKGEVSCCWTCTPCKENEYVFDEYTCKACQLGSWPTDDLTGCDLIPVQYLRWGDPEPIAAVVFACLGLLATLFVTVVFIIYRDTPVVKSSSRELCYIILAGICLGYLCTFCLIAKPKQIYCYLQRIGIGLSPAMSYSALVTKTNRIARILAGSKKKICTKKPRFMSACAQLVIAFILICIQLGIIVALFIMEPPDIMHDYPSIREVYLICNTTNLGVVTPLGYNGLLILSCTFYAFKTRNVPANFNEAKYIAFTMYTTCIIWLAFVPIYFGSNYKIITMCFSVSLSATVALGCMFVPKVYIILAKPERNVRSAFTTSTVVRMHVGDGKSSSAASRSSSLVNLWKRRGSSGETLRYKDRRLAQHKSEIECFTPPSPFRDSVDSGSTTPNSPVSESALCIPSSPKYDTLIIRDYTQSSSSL

As to `CC(Oc1nnc(-c2ccncc2)n1C)c1cnn(-c2cccc(Cl)c2)n1` (centres unmarked) [4-(5-{1-[2-(3-chlorophenyl)-2H-1,2,3-triazol-4-yl]ethoxy}-4-methyl-4H-1,2,4-triazol-3-yl)pyridine], the concentration for half-maximal inhibition (IC50) was found to be 27 nM.

As to `Clc1cccc(-n2cc(CSc3nnc(-c4ccncc4)n3C3CC3)nn2)c1` [4-{5-[1-(3-Chloro-phenyl)-1H-[1,2,3]triazol-4-ylmethylsulfanyl]-4-cyclopropyl-4H-[1,2,4]triazol-3-yl}-pyridine], the IC50 turned out to be 265 nM.
